Measurements: patent publication US11230532B2, “Pyrimidines and variants thereof, and uses therefor” (Afferent Pharmaceuticals Inc., priority 2016, dated 2022)

Columns and labels:
[1] = target: T1, human P2X2/3 receptor (heteromeric P2X2/3 channels) (Homo sapiens, UniProt P56373+Q9UBL9); assay: FlexStation calcium fluorescence assay, heteromeric P2X2/3 channels (1321N1-hP2X2/3 cells); assay type: cell-based; conditions: agonist 3 μM ATP, highest concentration tested 10 μM, read-out: Average pIC50 P2X2/3 (converted)
T1 construct: expressed in transfected cells; host or cells: 1321N1 human astrocytoma cells (1321N1-hP2X2/3)
T1 sequence (P56373 1-397): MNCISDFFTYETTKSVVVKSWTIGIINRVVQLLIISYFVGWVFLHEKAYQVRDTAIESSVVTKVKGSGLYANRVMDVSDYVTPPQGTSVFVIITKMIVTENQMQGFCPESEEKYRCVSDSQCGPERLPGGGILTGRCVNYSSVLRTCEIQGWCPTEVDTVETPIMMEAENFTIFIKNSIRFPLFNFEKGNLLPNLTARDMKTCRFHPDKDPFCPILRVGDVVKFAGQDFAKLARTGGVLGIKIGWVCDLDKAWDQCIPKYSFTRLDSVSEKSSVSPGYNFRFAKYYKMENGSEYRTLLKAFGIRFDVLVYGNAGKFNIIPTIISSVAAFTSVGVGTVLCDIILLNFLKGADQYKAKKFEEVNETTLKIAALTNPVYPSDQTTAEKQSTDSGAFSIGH
T1 sequence (Q9UBL9 1-471): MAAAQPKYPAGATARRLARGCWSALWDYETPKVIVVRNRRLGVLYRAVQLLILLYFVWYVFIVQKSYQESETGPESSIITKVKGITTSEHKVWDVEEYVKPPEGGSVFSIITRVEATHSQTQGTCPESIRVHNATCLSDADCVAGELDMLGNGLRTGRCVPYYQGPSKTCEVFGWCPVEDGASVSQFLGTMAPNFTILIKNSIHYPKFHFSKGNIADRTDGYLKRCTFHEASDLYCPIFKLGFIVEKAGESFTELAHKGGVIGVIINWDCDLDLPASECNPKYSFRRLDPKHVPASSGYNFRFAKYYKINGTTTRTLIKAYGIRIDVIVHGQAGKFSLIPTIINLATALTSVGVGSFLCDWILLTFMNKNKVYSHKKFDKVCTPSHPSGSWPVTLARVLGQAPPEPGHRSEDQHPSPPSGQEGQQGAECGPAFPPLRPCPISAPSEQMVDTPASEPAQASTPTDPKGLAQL
Protocol: (§1) 1321N1 human astrocytoma and HEK293 human embryonic kidney cells were stably transfected with human P2X2 and P2X3 receptor subunits to form heteromeric P2X2/3 channels and passaged in flasks. Additionally, HEK293 cells were stably transfected with human P2X3 receptor subunits to form homomeric P2X3 channels.
(§2) Approximately 24 hours before the FlexStation calcium fluorescence experiment, cells were released from their flasks, centrifuged and re-suspended in nutrient medium. The cells were aliquoted into black-wall, clear-bottom 96 well plates at a density of 25,000 cells per well and incubated overnight in a humidified, CO2-enriched (5%) atmosphere at 37° C.
(§3) On the day of the experiment, cells were washed with assay buffer (calcium- and magnesium-free Hank's balanced salt solution, 20 mM HEPES, 2 mM CaCl2; AB) and loaded with 4 μM Fluo-4 (P2X2/3) or Calcium 6 (Molecular Devices, according to manufacturer's instructions; P2X3) calcium-sensitive fluorescent dye in 100 μL AB.
(§4) After 1 hour of dye loading at 37° C., 1321N1-hP2X2/3 cells were washed two times with AB and test compound or vehicle added to each well in a total volume of 150 μL AB. HEK-hP2X3 cells were not washed because the Calcium 6 dye kit includes an extracellular dye that quenches unabsorbed Calcium 6 dye; test compound or vehicle were added directly to the assay plates to achieve the appropriate concentration of test compound in a total volume of 150 μL AB.
(§5) After 20 minutes incubation at RT and protected from light, the assay plates were loaded into the FlexStation microplate reader and baseline fluorescence measured with an excitation wavelength of 485 nm and emission wavelength readings centered at 525 nm (515 nm cut off).
(§6) The agonist was dispensed by the FlexStation during fluorescence measurement to construct agonist activation and antagonist inhibition curves. The final agonist concentration for inhibition was 1 μM α,β-meATP for P2X3 and 3 μM ATP for P2X2/3. Peak fluorescence was measured and curves generated using a four parameter nonlinear regression equation.

[2] = target: T2, human P2X3 receptor (homomeric P2X3 channels) (Homo sapiens, UniProt P56373); assay: FlexStation calcium fluorescence assay, homomeric P2X3 channels (HEK-hP2X3 cells); assay type: cell-based; conditions: for IC50: HEK293 cells stably transfected with human P2X3, agonist 1 μM α,β-meATP, highest concentration tested 10 μM, read-out: Average pIC50 P2X3 (converted); for Selectivity P2X3/P2X2/3: potency ratio P2X3 over P2X2/3 from pIC50s; for Selectivity, X = S: potency ratio P2X3 over P2X2/3
T2 construct: expressed in transfected cells; host or cells: HEK293 human embryonic kidney cells (HEK-hP2X3)
T2 sequence (P56373 1-397): T1 sequence (P56373 1-397)
Protocol: as §1, §2, §3, §4, §5, §6

Row | IC50 [1] | IC50 [2] | Selectivity P2X3/P2X2/3 [2] | Selectivity, X = S [2] | SMILES
1 | 0.631 µM | 79.4 nM | 7.3 |  | COc1nc(C(C)C)c(Sc2cnc(N)nc2N)cc1S(N)(=O)=O [Compound 27]
2 |  |  | >2 |  | COc1cc(C(C)C)c(Sc2cnc(N)nc2N)cc1C(=O)O [Compound 12]
3 | 0.398 µM | 100 nM | 4 |  | COc1nc(C(C)C)c(Sc2cnc(N)nc2N)cc1Br [Compound 24]
4 | > 10 µM | > 10000 nM |  |  | COc1cc(C(C)C)c([S+]([O-])c2cnc(N)nc2N)cc1OC (stereo not drawn) [Comparative Compound 1, reference compound]
5 | > 10 µM | 200 nM | >52 |  | COc1nc(C(C)C)c(Sc2cnc(N)nc2N)cc1S(C)(=O)=O [Compound 25]
6 |  |  | >145 |  | COc1nc(C(C)C)c(Oc2cnc(N)nc2N)cc1S(C)(=O)=O [Compound 16]
7 | > 10 µM | 1580 nM | >6.0 |  | COc1nc(C(C)C)c(Oc2cnc(N)nc2N)nc1N(C)C [Compound 45]
8 | > 10 µM | 79.4 nM | >123 |  | COc1cc(C(C)C)c(Nc2cnc(N)nc2N)cc1C(F)(F)F [Compound 40]
9 | 6.31 µM | 794 nM | 7.2 |  | CC#Cc1cc(Sc2cnc(N)nc2N)c(C(C)C)nc1OC [Compound 28]
10 | > 10 µM | 25.1 nM | >370 |  | COc1nc(C(C)C)c(Nc2cnc(N)nc2N)cc1S(C)(=O)=O [Compound 36]
11 | 5.01 µM | 25.1 nM | 208 |  | COc1cc(C(C)C)c(Nc2cnc(N)nc2N)cc1Cl [Compound 39]
12 |  |  | 48 |  | COc1cc(C(C)C)c(Sc2cnc(N)nc2N)cc1I [Compound 4]
13 | > 10 µM | 7940 nM | >1 |  | COc1nc(C(C)C)c(Sc2cnc(N)nc2N)cc1C#N [Compound 26]
14 | 0.398 µM | 10 nM | 34 |  | COc1nc(C(C)C)c(Nc2cnc(N)nc2N)cc1Cl [Compound 32]
15 |  |  | >34 |  | COc1cc(C(C)C)c(Sc2cnc(N)nc2N)cc1C [Compound 7]
16 | > 10 µM | 316 nM | >33 |  | COc1nc(C(C)C)c(Oc2cnc(N)nc2N)cc1[S+](C)[O-] (stereo not drawn) [Compound 42]
17 |  |  | >47 |  | COc1cc(C(C)C)c(Sc2cnc(N)nc2N)cc1Br [Compound 8]
18 |  |  | 28 |  | C#Cc1cc(Oc2cnc(N)nc2N)c(C(C)C)nc1OC [Compound 19]
19 |  |  | >67 |  | COc1cc(C(C)C)c(Sc2cnc(N)nc2N)cc1S(N)(=O)=O [Compound 3]
20 | > 10 µM | 398 nM | >24 |  | CCc1cc(OC)c(I)cc1Sc1cnc(N)nc1N [Compound 21]
21 |  |  |  | >100 | COc1cc(Sc2cnc(N)nc2N)c(C(C)C)cc1OC [A, X = S]
22 |  |  | >13 |  | CC#Cc1cc(Sc2cnc(N)nc2N)c(C(C)C)cc1OC [Compound 6]
23 |  |  | 5.2 |  | COc1cc(Oc2cnc(N)nc2N)c(C(C)C)nc1OC [Compound 13]
24 |  |  |  | >50 | COc1cc(C(C)C)c(Sc2cnc(N)nc2N)cc1Cl [D, X = S]
25 | 1.26 µM | 631 nM | 2.1 |  | COc1nc(C(C)C)c(Oc2cnc(N)nc2N)cc1SC(F)(F)F [Compound 47]
26 | > 10 µM | 3980 nM | >2.5 |  | COc1nc(C(C)C)c(Sc2cnc(N)nc2N)cc1SC(F)(F)F [Compound 31]

Row | IC50 [1] | IC50 [2] | Selectivity P2X3/P2X2/3 [2] | Selectivity, X = S [2] | SMILES
27 |  |  | >100 | greater than 100 | COc1cc(Sc2cnc(N)nc2N)c(C(C)C)cc1OC [Compound 1]
28 |  |  | >58 |  | COc1cc(C(C)C)c(Sc2cnc(N)nc2N)cc1-c1nnn[nH]1 [Compound 11]
29 |  |  | >56 |  | COc1cc(C(C)C)c(Sc2cnc(N)nc2N)cc1Cl [Compound 9]
30 | 2 µM | 10 nM | 225 |  | COc1cc(Nc2cnc(N)nc2N)c(C(C)C)nc1OC [Compound 44]
31 | > 10 µM | 3160 nM | >3.4 |  | COc1nc(C(C)C)c(Oc2cnc(N)nc2N)cc1S(C)(=N)=O (stereo not drawn) [Compound 43]
32 |  |  | 19 |  | COc1nc(C(C)C)c(Oc2cnc(N)nc2N)cc1S(N)(=O)=O [Compound 20]
33 | 0.794 µM | 25.1 nM | 26 |  | COc1nc(C(C)C)c(Oc2cnc(N)nc2N)cc1Cl [Compound 33]
34 |  |  | >7.1 |  | COc1ccc(Oc2cnc(N)nc2N)c(C(C)C)n1 [Compound 14]
35 | 0.2 µM | 50.1 nM | 3.9 |  | C#Cc1cc(Sc2cnc(N)nc2N)c(C(C)C)nc1OC [Compound 29]
36 | > 10 µM | 126 nM | >73 |  | COc1cc(C(C)C)c(Nc2cnc(N)nc2N)cc1S(C)(=O)=O [Compound 37]
37 |  |  |  | 48 | COc1cc(C(C)C)c(Sc2cnc(N)nc2N)cc1I [B, X = S]
38 |  |  | >18 |  | COc1cc(C(C)C)c(Sc2cnc(N)nc2N)cc1S(C)(=O)=O [Compound 2]
39 |  |  | 23 |  | COc1nc(C(C)C)c(Oc2cnc(N)nc2N)cc1C(F)(F)F [Compound 18]
40 | 1.58 µM | 63.1 nM | 28 |  | COc1cc(Nc2cnc(N)nc2N)c(C(C)C)cc1OC [Compound 30]
41 | > 10 µM | 200 nM | >48 |  | COc1nc(C(C)C)c(Sc2cnc(N)nc2N)cc1Cl [Compound 38]
42 | 0.501 µM | 12.6 nM | 41 |  | COc1nc(C(C)C)c(Oc2cnc(N)nc2N)cc1SC [Compound 41]
43 | 1 µM | 100 nM | 10 |  | COc1nc(C(C)C)c(Oc2cnc(N)nc2N)nc1C(F)(F)F [Compound 46]
44 |  |  | 97 |  | C#Cc1cc(Sc2cnc(N)nc2N)c(C(C)C)cc1OC [Compound 5]
45 | > 10 µM | 3980 nM | >3 |  | CCc1cc(OC)c(S(C)(=O)=O)cc1Sc1cnc(N)nc1N [Compound 22]
46 | > 10 µM | 3980 nM | >3 |  | COc1ccc(Sc2cnc(N)nc2N)c(C(C)C)n1 [Compound 23]
47 | > 10 µM | > 10000 nM |  |  | COc1cc(C(C)C)c(S(=O)(=O)c2cnc(N)nc2N)cc1OC [Comparative Compound 2, reference compound]
48 | 6.31 µM | 794 nM | 8.3 |  | COc1nc(C(C)C)c(Sc2cnc(N)nc2N)cc1C(F)(F)F [Compound 34]
49 |  |  | >10 |  | COc1nc(C(C)C)c(Oc2cnc(N)nc2N)cc1C#N [Compound 17]
50 | 7.94 µM | 39.8 nM | 198 |  | COc1nc(C(C)C)c(Nc2cnc(N)nc2N)cc1C(F)(F)F [Compound 35]
51 |  |  |  | >18 | COc1cc(C(C)C)c(Sc2cnc(N)nc2N)cc1S(C)(=O)=O [C, X = S]
